Source: patent US20070275943A1, “Method and Composition for Treatment or Prophylaxis of Amyloidosis Disorders” (Acrux DDS Pty Ltd., priority 2003, published 2007)

Columns and labels:
[1] = Diffusion across excised human epidermis, flow-through diffusion cells, finite dose; conditions: test spray (5% w/v 1,10-phenanthroline + 5% w/v octyl salicylate in 95% ethanol) vs control without enhancer, 24 h, 5 μL/cm^2, p<0.01
Method: The diffusion experiments were performed using excised human epidermis as the model membrane. These experiments were performed over 24 h with stainless steel, flow-through diffusion cells based on those previously described, (Cooper, E. R. J. Pharm. Sci. 1984, 73, 1153-1156.) except that the cell was modified to increase the diffusional area to 1.0 cm^2. The formulations were applied using a finite dose technique (Franz, T. J. Curr. Probl. Dermatol. 1978, 7, 58-68.) to mimic clinical dosing conditions at an applied dose volume of 5 μL/cm^2. A piece of stainless steel wire mesh was placed directly below the skin in the receptor chamber of the diffusion cell to maintain a turbulent flow of receptor solution below the skin. The diffusion cells were maintained at a flow rate of approximately 1.0 ml/cm^2/h by a microcassette peristaltic pump (Watson Marlow 505S, UK). The cells were kept at 32±0.5° C. by a heater bar and the samples are collected into appropriately sized plastic vials on an automated fraction collector (Isco Retriever II, Lincoln, Nebr.) at specified intervals. […]
Samples were analysed for 1,10-phenanthroline directly by RP-HPLC using the following conditions; Column—Waters Symmetry C18 column (3.9×150 mm) with a 5 μm support size; Mobile phase—20% Acetonitrile buffered with 0.01 M KH2PO4, pH=2.80; Flow rate—0.9 mL/min; Absorbance—235 nm; and Injection volume—20 μL.

[2] = molar ratio 1:1 (zinc: Aβ); read-out: KD of high affinity zinc binding; cited from earlier work

Row | Compound | increase in the transdermal delivery of 1,10-phenanthroline across the skin [1] [fold] | Kd [2] [nM]
1 | c1cnc2c(c1)ccc1cccnc12 [1,10-phenanthroline] | 1.3 | 
2 | Aβ: polypeptide, major component of the amyloid deposits in Alzheimer's disease |  | 107
